Data: patent US8575146B2, “Pharmaceutical uses of staurosporine derivatives” (Novartis AG, priority 2003, dated 2013)

What was measured:
[1] = tested on: BR and C2 canine mastocytoma cells; test: XTT-based proliferation assay of canine mast cell tumor cell lines; conditions: 0.1-10 μM; 48-72 hours; BR or C2 cells
Description: (§1) The C2 cell line has an internal tandem duplication (ITD) of the KIT juxtamembrane region.

[2] = biological target: T1, constitutively activated mutant canine KIT in BR and C2 cells (Canis lupus familiaris, UniProt O97799, L579P); test: KIT autophosphorylation in BR and C2 canine mastocytoma cell lysates (anti-P-Tyr Western immunoblot); assay type: cell-based
T1 construct: Lysates prepared from BR or C2 cells are probed with an anti-P-Tyr antibody; endogenous in cells; host or cells: BR canine mastocytoma cell line
Description: as §1

[3] = tested on: systemic mastocytosis with D816V KIT mutation; test: Case of a patient with systemic mastocytosis / mast cell leukemia treated with PKC412; assay type: in vivo, human
Description: They were supported with red blood cell and platelet transfusions, antihistamine blockade, and cromolyn sodium.

T1 sequence (O97799 28-979 L579P): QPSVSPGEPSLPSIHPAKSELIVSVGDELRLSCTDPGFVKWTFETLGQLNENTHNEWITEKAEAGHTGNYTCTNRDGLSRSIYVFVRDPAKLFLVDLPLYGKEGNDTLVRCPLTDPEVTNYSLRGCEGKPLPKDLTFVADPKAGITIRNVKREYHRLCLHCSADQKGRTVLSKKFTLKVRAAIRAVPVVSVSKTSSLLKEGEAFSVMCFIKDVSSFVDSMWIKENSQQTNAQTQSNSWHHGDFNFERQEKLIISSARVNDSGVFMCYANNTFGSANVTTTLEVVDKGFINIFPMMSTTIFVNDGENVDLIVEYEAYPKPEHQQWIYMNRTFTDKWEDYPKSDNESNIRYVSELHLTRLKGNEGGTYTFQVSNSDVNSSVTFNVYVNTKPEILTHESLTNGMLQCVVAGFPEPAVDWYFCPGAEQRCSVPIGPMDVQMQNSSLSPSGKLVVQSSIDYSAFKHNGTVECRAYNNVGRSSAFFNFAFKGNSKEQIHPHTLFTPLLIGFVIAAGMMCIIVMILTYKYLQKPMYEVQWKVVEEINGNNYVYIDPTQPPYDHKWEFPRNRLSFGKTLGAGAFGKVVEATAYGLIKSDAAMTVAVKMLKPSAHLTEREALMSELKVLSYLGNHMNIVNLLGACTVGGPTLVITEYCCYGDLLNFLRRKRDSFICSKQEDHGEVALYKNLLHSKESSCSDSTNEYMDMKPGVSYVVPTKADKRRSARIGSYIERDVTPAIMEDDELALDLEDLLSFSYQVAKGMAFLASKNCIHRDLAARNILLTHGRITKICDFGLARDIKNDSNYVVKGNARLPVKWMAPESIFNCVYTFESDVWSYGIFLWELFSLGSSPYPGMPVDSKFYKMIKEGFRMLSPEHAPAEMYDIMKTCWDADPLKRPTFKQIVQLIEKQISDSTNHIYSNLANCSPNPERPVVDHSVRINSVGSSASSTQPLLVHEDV

CO[C@@H]1[C@H](N(C)C(=O)c2ccccc2)C[C@H]2O[C@]1(C)n1c3ccccc3c3c4c(c5c6ccccc6n2c5c31)C(=O)NC4 [PKC412, N-[(9S, 10R,11R,13R)-2,3,10,11,12,13-hexahydro-10-methoxy-9-methyl-1-oxo-9,13-epoxy-1H,9H-diindolo[1,2,3-gh:3′,2′,1′-lm]pyrrolo[3,4j][1,7]benzodiazonin-11-yl]-N-methylbenzamide]
proliferation decreased compared to cells treated with media only [1]: 90-95% | Inhibition of KIT autophosphorylation ([2]; 0.1 μM dose, BR or C2 cells, 90 minutes): Near complete inhibition | autophosphorylation of c-kit ([2]; 0.001-0.01 μM doses, BR or C2 cells, 90 minutes): Limited autophosphorylation | Inhibition of KIT autophosphorylation ([2]; 10 and 1.0 μM doses, BR or C2 cells, 90 minutes): complete inhibition | expression of c-kit protein (membrane reprobed with anti-c-kit antibody) ([2]; PKC412 treated BR or C2 cells): no change | tolerability / adverse events ([3]; 100 mg twice daily orally, later 75 mg po tid): well tolerated without any significant adverse events | day on which patient expired ([3]; PKC412 stopped on day #102): 111 days | serum histamine level ([3]; after 1 month (about day 32)): 1031 ng/dL | Transient platelet-transfusion independence, duration ([3]; cycle 2): 2-3 weeks | platelets ([3]; cycle 2, during transient platelet-transfusion independence): 20,000-25,000 /mm3 | Serum histamine ([3]; cycle 3): 2525 ng/dL | bilirubin (total) ([3]; cycle 3, when PKC412 stopped on day #102): 14 mg/dL | circulating mast cells ([3]; day 32 of treatment): < 5% | white blood cell count ([3]; day 32 of treatment): normal | Bone marrow clusters of mast cells by IPOX ([3]; end of cycle 1): no changes | Bone marrow blasts ([3]; end of cycle 1 / after 1 month, 5-10% at presentation): < 5% | Karnofsky performance status ([3]; end of cycle 1 / after 1 month, from 20% before therapy): 70% | Response (criteria of Valent et al) ([3]; end of cycle 1, 100 mg twice daily orally, 28-day cycles): Partial Response | direct bilirubin ([3]; end of cycle 1, from 2.8): 1.1 mg/dL | total bilirubin ([3]; end of cycle 1, from 4.8): 2.1 mg/dL | Peripheral blood mast cell numbers ([3]; end of cycle 1, from 40-50%): < 10% | LDH ([3]; end of cycle 1, from 769): 239 IU/L | Serum histamine ([3]; end of cycle 1, from 7000, normal <100): 1000 ng/dL | Bone marrow blasts ([3]; end of cycle 2): 10-15% | Bone marrow mast cell clusters ([3]; end of cycle 2): no significant change | Peripheral blood mast cell numbers ([3]; end of cycle 2): < 10% | Response ([3]; end of cycle 2): Maintenance of Partial Response | Serum histamine ([3]; end of cycle 2): 800 to 1200 ng/dL | serum tryptase ([3]; end of cycle 2): > 200 µg/L | direct bilirubin ([3]; end of cycle 2, from 1.1): 0.7 mg/dL | total bilirubin ([3]; end of cycle 2, from 2.1): 1.3 mg/dL | Response ([3]; end of cycle 3, dose increased to 75 mg po tid on day #91): Disease Progression
